What follows are compounds tested against T1, Tyrosine-protein phosphatase non-receptor type 1 (Homo sapiens, UniProt P18031) (assay: Enzymatic Assay). Conditions: pH 6.5; 30 °C.
T1 sequence (P18031 whole entry): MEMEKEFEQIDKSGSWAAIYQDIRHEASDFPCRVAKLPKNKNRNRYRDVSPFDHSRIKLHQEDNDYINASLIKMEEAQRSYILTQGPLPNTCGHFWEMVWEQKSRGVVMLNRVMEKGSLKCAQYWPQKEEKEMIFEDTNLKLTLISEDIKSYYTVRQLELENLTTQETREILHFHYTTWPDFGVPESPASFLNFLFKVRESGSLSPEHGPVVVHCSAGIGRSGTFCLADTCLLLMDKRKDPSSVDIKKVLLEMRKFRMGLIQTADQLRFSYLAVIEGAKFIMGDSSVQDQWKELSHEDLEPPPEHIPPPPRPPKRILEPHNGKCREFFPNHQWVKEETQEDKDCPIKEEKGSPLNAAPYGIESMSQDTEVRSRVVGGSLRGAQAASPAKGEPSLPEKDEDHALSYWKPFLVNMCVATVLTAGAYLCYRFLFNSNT
Description: Briefly, the enzymatic activity of the PTP1B catalytic domain was determinedat 30°C by monitoring the hydrolysis of pNPP. […] Assays were performed in a total volume of 100 μL containing 50 mmol/L 3-[N-morpholino]propane-sulfonic acid (MOPs), pH = 6.5, 2 mmol/L pNPP, and 30 nmol/L recombinant PTP1B, as well as the indicated concentrations of the inhibitor.

Compound	IC50 [µM]
O=C1CC(c2ccccc2F)Oc2cc(O)cc(O)c21 (stereo not given) [PTP inhibitor, 4a]	9.06
O=C1CC(c2cccc(F)c2)Oc2cc(O)cc(O)c21 (stereo not given) [PTP inhibitor, 4b]	7.98
O=C1CC(c2ccc(F)cc2)Oc2cc(O)cc(O)c21 (stereo not given) [PTP inhibitor, 4c]	2.66
O=C1CC(c2ccccc2Cl)Oc2cc(O)cc(O)c21 (stereo not given) [PTP inhibitor, 4d]	10.2
O=C1CC(c2cccc(Cl)c2)Oc2cc(O)cc(O)c21 (stereo not given) [PTP inhibitor, 4e]	4.18
O=C1CC(c2ccc(Cl)cc2)Oc2cc(O)cc(O)c21 (stereo not given) [PTP inhibitor, 4f]	3.6
O=C1CC(c2ccc(Cl)cc2Cl)Oc2cc(O)cc(O)c21 (stereo not given) [PTP inhibitor, 4g]	2.4
O=C1CC(c2ccccc2Br)Oc2cc(O)cc(O)c21 (stereo not given) [PTP inhibitor, 4h]	4.9
O=C1CC(c2cccc(Br)c2)Oc2cc(O)cc(O)c21 (stereo not given) [PTP inhibitor, 4i]	7.33
O=C1CC(c2ccc(Br)cc2)Oc2cc(O)cc(O)c21 (stereo not given) [PTP inhibitor, 4j]	3.48
O=C1CC(c2cccc(C(F)(F)F)c2)Oc2cc(O)cc(O)c21 (stereo not given) [PTP inhibitor, 4k]	2.37
O=C1CC(c2ccccc2)Oc2cc(O)cc(O)c21 (stereo not given) [PTP inhibitor, 4l]	36.7
Cc1ccc(C2CC(=O)c3c(O)cc(O)cc3O2)cc1 (stereo not given) [PTP inhibitor, 4m]	14.1

These compounds were tested against T2, M-phase inducer phosphatase 2 (Homo sapiens, UniProt P30305) (assay: Enzymatic Assay). Conditions: pH 6.5; 30 °C.
T2 sequence (P30305 whole entry): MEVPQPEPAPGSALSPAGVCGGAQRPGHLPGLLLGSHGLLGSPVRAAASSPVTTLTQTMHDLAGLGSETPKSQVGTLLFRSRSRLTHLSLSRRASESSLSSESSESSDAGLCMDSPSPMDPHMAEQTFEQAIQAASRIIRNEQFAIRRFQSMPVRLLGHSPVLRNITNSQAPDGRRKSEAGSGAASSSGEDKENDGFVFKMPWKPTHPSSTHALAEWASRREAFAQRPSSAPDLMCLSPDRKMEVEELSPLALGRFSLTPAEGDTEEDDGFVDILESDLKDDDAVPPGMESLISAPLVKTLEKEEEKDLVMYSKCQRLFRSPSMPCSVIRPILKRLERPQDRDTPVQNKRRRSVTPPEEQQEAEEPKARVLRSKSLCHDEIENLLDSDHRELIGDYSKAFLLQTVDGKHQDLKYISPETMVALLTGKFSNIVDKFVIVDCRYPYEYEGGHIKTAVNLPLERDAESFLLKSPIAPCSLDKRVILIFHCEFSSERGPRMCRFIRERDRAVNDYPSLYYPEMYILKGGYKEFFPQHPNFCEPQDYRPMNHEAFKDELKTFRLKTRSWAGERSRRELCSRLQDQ

Compound	IC50 [µM]
O=C1CC(c2cccc(C(F)(F)F)c2)Oc2cc(O)cc(O)c21 (stereo not given) [PTP inhibitor, 4k]	8.54

The compounds below were run against T3, Tyrosine-protein phosphatase non-receptor type 2 (Homo sapiens, UniProt P17706) (assay: Enzymatic Assay). Conditions: pH 6.5; 30 °C.
T3 sequence (P17706 whole entry): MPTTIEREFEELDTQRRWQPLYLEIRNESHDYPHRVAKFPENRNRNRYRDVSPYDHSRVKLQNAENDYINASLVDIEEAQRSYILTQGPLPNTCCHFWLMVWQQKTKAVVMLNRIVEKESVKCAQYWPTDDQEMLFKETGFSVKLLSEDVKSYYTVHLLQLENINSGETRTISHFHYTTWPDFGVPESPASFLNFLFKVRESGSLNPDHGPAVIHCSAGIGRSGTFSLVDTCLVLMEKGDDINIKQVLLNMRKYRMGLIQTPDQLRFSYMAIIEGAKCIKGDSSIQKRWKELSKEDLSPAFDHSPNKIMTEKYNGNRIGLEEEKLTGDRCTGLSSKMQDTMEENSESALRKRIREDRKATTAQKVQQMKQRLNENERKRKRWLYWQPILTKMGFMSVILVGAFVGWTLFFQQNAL

Compound	IC50 [µM]
O=C1CC(c2cccc(C(F)(F)F)c2)Oc2cc(O)cc(O)c21 (stereo not given) [PTP inhibitor, 4k]	8.82
